According to patent US8613927B2, “High affinity human antibodies to human nerve growth factor” (Regeneron Pharmaceuticals, Inc., priority 2007, dated 2013):

How the values were obtained:
[1] = system: C57BL/6 mice; assay: Post-operative incision pain model, mechanical allodynia in von Frey test; type: in vivo, mouse; settings: Table 17
Experimental: Thermal hyperalgesia was studied in the Hargreaves' test and mechanical allodynia was tested in the von Frey test. In this latter test, mice were tested after being acclimated for 2-3 hours for 4 days in an apparatus with a wire mesh floor. The test was performed by applying, in ascending order, a series of von Frey hairs through the wire mesh onto the plantar surface of the hind paw with the incision. A response was considered positive if the paw was raised from the platform in response to application of the filament. Starting from the thinnest hair, each von Frey filament was applied up to five times until a response was observed.

[2] = system: circulating levels of neurotrophin-3 (NT-3); assay: Serum NT-3 sandwich ELISA, mice of post incision pain model; type: in vivo, mouse; settings: day 4, 25 mg/kg i.p., mean±std dev, limit of detection ~40 pg/ml
Source text: On day 4, after the behavioral tests from post incision pain model were completed, the mice's sera were collected and analyzed for circulating levels of neurotrophin-3 (NT-3) using a sandwich ELISA. The limit of detection (˜40 pg/ml) was defined as two standard deviations (2σ) above background with a minimum of five NT-3 standards to define the response to concentration curve.

[3] = system: C57BL/6 male mice; assay: Seltzer model of neuropathic pain, Hargreaves' test; type: in vivo, mouse
Source text: Neuropathic pain. The mouse Seltzer model of neuropathic pain (Malmberg et al. (1998) Pain 76:215-222) was used with C57BL/6 male mice, in which a partial nerve injury was produced by tying a tight ligature with a 7-0 silk suture around approximately ⅓ to ½ the diameter of the sciatic nerve of one single thigh per mouse. Post-surgery, the mice were allowed to recover for at least two days and then they were studied for several weeks post-surgery for thermal hyperalgesia in the Hargreaves' test. Controls were sham-operated mice in which the sciatic nerve was exposed and elevated but not tied. Following surgery, the mice were tested at day […] and at day 7 post-surgery to confirm that the thermal hyperalgesia had developed.
Following the Seltzer surgery, mice were tested at days 5 and 7 post-surgery to confirm that the thermal hyperalgesia had developed.

[4] = target: Human NGF binding to human TrkA-hFc (Homo sapiens, UniProt P01138, DEL136-138/DEL208-209); assay: BIACORE receptor blocking assay, free NGF bound to TrkA-hFc; settings: percentage free NGF bound; NGF 10-25 nM with molar excess of antibody; NGF alone = 100%
Sequence of Human NGF binding to human TrkA-hFc (P01138 with tags, fused parts or gaps DEL136-138/DEL208-209): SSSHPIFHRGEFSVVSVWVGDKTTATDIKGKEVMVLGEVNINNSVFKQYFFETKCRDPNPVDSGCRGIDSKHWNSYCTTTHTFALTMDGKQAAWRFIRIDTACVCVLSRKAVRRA
Source text: (§1) To identify blocking antibodies, a receptor blocking assay was designed using a BIACORE™ 3000 instrument. Recombinant human TrkA-hFc and human p75-hFc proteins were amine-coupled to a CM5 chip to a density of about 5000-6000 RU.

[5] = target: Human NGF binding to human p75-hFc (Homo sapiens, UniProt P01138, DEL136-138/DEL208-209); assay: BIACORE receptor blocking assay, free NGF bound to p75-hFc; settings: percentage free NGF bound; NGF 10-25 nM with molar excess of antibody; NGF alone = 100%
Sequence of Human NGF binding to human p75-hFc (P01138 with tags, fused parts or gaps DEL136-138/DEL208-209): as above
Source text: as §1

Molecule: REGN475: HCVR/LCVR SEQ ID NO:108/110 and mutant hIgG4 SEQ ID NO:543
- Paw Withdrawal Threshold ([1]; 25 mg/kg i.p. on day 1 post-surgery, Baseline): 1.286 ± 0.074 g
- Paw Withdrawal Threshold ([1]; 25 mg/kg i.p., 5 hr after treatment): 0.034 ± 0.009 g
- Paw Withdrawal Threshold ([1]; 25 mg/kg i.p., 22 hr after treatment): 0.714 ± 0.074 g
- Paw Withdrawal Threshold ([1]; 25 mg/kg i.p., 45 hr after treatment): 1.086 ± 0.184 g
- Paw Withdrawal Threshold ([1]; 25 mg/kg i.p., 70 hr after treatment): 1.571 ± 0.437 g
- Paw Withdrawal Threshold ([1]; 25 mg/kg i.p., Day 1 (post-surgery, before injection)): 0.010 ± 0.002 g
- Serum NT-3 [2]: not detected
- pain relief ([3]; 50 mg/kg s.c. or i.p. at day 7 post-surgery, p<0.001-0.05): Significant pain relief was observed
- mean percent change from Hargreaves baseline ([3]; Table 25, 50 mg/kg s.c. at day 7, day 5 after surgery): −55.2 ± 3.5%
- mean percent change from Hargreaves baseline ([3]; Table 25, 50 mg/kg s.c. at day 7, day 7): −50.9 ± 4.3%
- mean percent change from Hargreaves baseline ([3]; Table 25, 50 mg/kg s.c. at day 7, day 8): 10.3 ± 14.1%
- mean percent change from Hargreaves baseline ([3]; Table 25, 50 mg/kg s.c. at day 7, day 9): 8.2 ± 7.2%
- mean percent change from Hargreaves baseline ([3]; Table 25, 50 mg/kg s.c. at day 7, day 12): −20.1 ± 4.3%
- mean percent change from Hargreaves baseline ([3]; Table 25, 50 mg/kg s.c. at day 7, day 15): −14.1 ± 6.1%
- mean percent change from Hargreaves baseline ([3]; Table 25, 50 mg/kg s.c. at day 7, day 19): 3.0 ± 10.9%
- mean percent change from Hargreaves baseline ([3]; Table 25, 50 mg/kg s.c. at day 7, day 22): −13.7 ± 13.4%
- mean percent change from Hargreaves baseline ([3]; Table 25, 50 mg/kg s.c. at day 7 post-surgery, Baseline): 0.0 ± 0.0%
- mean percent change from Hargreaves baseline ([3]; Table 26, 50 mg/kg i.p. at day 7, day 5 after surgery): −58.7 ± 2.3%
- mean percent change from Hargreaves baseline ([3]; Table 26, 50 mg/kg i.p. at day 7, day 7): −61.7 ± 2.7%
- mean percent change from Hargreaves baseline ([3]; Table 26, 50 mg/kg i.p. at day 7, day 8): −8.2 ± 16.1%
- mean percent change from Hargreaves baseline ([3]; Table 26, 50 mg/kg i.p. at day 7, day 9): −7.9 ± 9.6%
- mean percent change from Hargreaves baseline ([3]; Table 26, 50 mg/kg i.p. at day 7, day 12): −0.1 ± 22.8%
- mean percent change from Hargreaves baseline ([3]; Table 26, 50 mg/kg i.p. at day 7, day 15): −10.8 ± 18.0%
- mean percent change from Hargreaves baseline ([3]; Table 26, 50 mg/kg i.p. at day 7 post-surgery, Baseline): 0.0 ± 0.0%

B1: TrkA-hFc: soluble receptorbody: extracellular domain of human TrkA fused with Fc portion of human IgG1 (protein)
chain: AAPCPDACCPHGSSGLRCTRDGALDSLHHLPGAENLTELYIENQQHLQHLELRDLRGLGELRNLTIVKSGLRFVAPDAFHFTPRLSRLNLSFNALESLSWKTVQGLSLQELVLSGNPLHCSCALRWLQRWEEEGLGGVPEQKLQCHGQGPLAHMPNASCGVPTLKVQVPNASVDVGDDVLLRCQVEGRGLEQAGWILTELEQSATVMKSGGLPSLGLTLANVTSDLNRKNVTCWAENDVGRAEVSVQVNVSFPASVQLHTAVEMHHWCIPFSVDGQPAPSLRWLFNGSVLNETSFIFTEFLEPAANETVRHGCLRLNQPTHVNNGNYTLLAANPFGQASASIMAAFMDNPFEFNPEDPIPVSFSPVDTNSTSGDPVEKKDETPFGVSVAVG
modifications: left off: a dimerising Fc or GST
notes: soluble receptorbody: extracellular domain of human TrkA fused with Fc portion of human IgG1
- % Binding TrkA-hFc [4]: 10%
- % Binding p75-hFc [5]: 15%

B2: p75-hFc: soluble receptorbody: extracellular domain of human p75 fused with Fc portion of human IgG1 (protein)
chain: KEACPTGLYTHSGECCKACNLGEGVAQPCGANQTVCEPCLDSVTFSDVVSATEPCKPCTECVGLQSMSAPCVEADDAVCRCAYGYYQDETTGRCEACRVCEAGSGLVFSCQDKQNTVCEECPDGTYSDEANHVDPCLPCTVCEDTERQLRECTRWADAECEEIPGRWITRSTPPEGSDSTAPSTQEPEAPPEQDLIASTVAGVVTTVMGSSQPVVTRGTTDN
modifications: left off: a dimerising Fc or GST
notes: soluble receptorbody: extracellular domain of human p75 fused with Fc portion of human IgG1
- % Binding TrkA-hFc [4]: 3%
- % Binding p75-hFc [5]: 5%
